# Biological target: T1, rat striatal 5HT6 receptors (Rattus norvegicus, UniProt P31388)
# T1 construct: Striatal tissue from adult rats (Sprague-Dawley, 320-370 g, B & K Sweden) were dissected out, weighed and homogenized; from tissue; host or cells: rat striatum (Sprague-Dawley) membranes
# Test: [125I]SB258585 binding to rat striatal 5HT6 receptors
# Settings: competition with [125I]SB258585, rat striatal membranes
# Experimental: Method for [125I]SB258585 binding to rat striatal 5HT6 receptors
# [125I]SB258585 (1) with specific activity 2000 Ci/mmol was purchased from Amersham Biosciences Europe GmbH, Freiburg, Germany. Other chemicals were purchased from commercial sources and were of analytical grade.
# Striatal tissue from adult rats (Sprague-Dawley, 320-370 g, B & K Sweden) were dissected out, weighed and homogenized in buffer containing 50 mM Tris-HCl, 4 mM MgCl2, 1 mM EDTA, 10 μM pargyline and protease inhibitor (Complete, Roche Diagnostics) pH 7.4 using an Ultra-Turrax T8 (IKA Labortechnik, Germany). The tissue homogenate was centrifuged at 48 000×g for 10 min and the pellet was resuspended and recentrifuged as above. The final membranes were diluted in buffer to a concentration of 60 mg original wet weight (w.w.) per ml and stored in aliquots at −70° C.
# Saturation binding studies were carried out in duplicate with 1-3 mg w.w. per tube in 0.5 ml buffer (50 mM Tris, 4 mM MgCl2, 100 mM NaCl, 1 mM EDTA, 5 mM ascorbate and 10 μM pargyline at pH 7.4), 0.2 nM [125I]SB258585 and unlabelled SB258585 to give a final concentration range of 0.23-20 nM (12 conc.). Non-specific binding was determined in the presence of 10 μM methiothepin. In the competition experiments 0.8-2 mg w.w. per tube and a radioligand concentration of 0.5-1 nM were used with 7 concentrations of the competing drug pre-dissolved in DMSO and diluted in buffer. The assays were incubated for 1-3 hours at room temperature, and terminated by rapid filtration through Whatman GF/B filters pretreated with 0.3% polyethyleneimine using a Brandel cell harvester. The radioactivity was determined in a Packard Tri-Carb 2900TR liquid scintillation counter. Data were analyzed by non-linear regression analyses using PRISM 4.00 (GraphPad Software Inc., San Diego, Calif.).
# Hirst, W. D., Minton, J. A. L., Bromidge, S. M., Moss, S. F., Latter, A., Riley, G., Routledge, C., Middlemiss, D. N. & Price, G. W. (2000). Characterization of [125I]-SB-258585 binding to human recombinant and native 5HT6 receptors in rat, pig and human brain tissue. Br. J. Pharmacol., 130, 1597-1605.
# T1 sequence (P31388 whole entry): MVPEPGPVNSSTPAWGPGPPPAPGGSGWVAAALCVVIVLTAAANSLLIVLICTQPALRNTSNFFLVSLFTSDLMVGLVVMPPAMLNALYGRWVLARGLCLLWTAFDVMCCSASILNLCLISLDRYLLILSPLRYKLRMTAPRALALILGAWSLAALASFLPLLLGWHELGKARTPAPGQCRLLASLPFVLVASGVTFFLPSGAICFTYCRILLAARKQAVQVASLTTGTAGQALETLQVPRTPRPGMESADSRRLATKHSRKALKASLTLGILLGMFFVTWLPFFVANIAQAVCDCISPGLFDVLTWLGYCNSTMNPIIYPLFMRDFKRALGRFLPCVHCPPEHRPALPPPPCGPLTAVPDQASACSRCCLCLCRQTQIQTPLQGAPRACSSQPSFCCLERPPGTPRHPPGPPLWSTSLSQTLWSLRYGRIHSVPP
row,Ki,SMILES
1,13 ± 5.9 nM,"COc1ccc(NS(=O)(=O)c2ccccc2-c2ccccc2)c2c1C[C@@H](N(C)C)CC2 [Example 176, N-[(6S)-6-(dimethylamino)-4-methoxy-5,6,7,8-tetrahydronaphthalen-1-yl]-1,1′-biphenyl-2-sulfonamide]"
2,19 ± 0.8 nM,"COc1ccc(NS(=O)(=O)c2sc3ccc(F)cc3c2C)c2c1C[C@@H](N(C)C)CC2 [Example 181, N-[(6S)-6-(dimethylamino)-4-methoxy-5,6,7,8-tetrahydronaphthalen-1-yl]-5-fluoro-3-methyl-1-benzothiophene-2-sulfonamide]"
3,290 ± 190 nM,"COc1ccc(NS(=O)(=O)c2cc(Cl)cc(Cl)c2)c2c1C[C@@H](N1CCCC1)CC2 [Example 313, 3,5-Dichloro-N-[(6S)-4-methoxy-6-pyrrolidin-1-yl-5,6,7,8-tetrahydronaphthalen-1-yl]benzenesulfonamide]"

# Continued, molecule first:
row,SMILES,Ki
1,"COc1ccc(NS(=O)(=O)c2cccc(Br)c2)c2c1C[C@@H](N(C)C)CO2 [Example 3, 3-Bromo-N-[(3R)-3-(dimethylamino)-5-methoxy-3,4-dihydro-2H-chromen-8-yl]benzenesulfonamide]",7.5 ± 3.6 nM
2,"COc1ccc(NS(=O)(=O)c2ccc3ccccc3c2)c2c1C[C@@H](N(C)C)CO2 [Example 24, N-[(3R)-3-(dimethylamino)-5-methoxy-3,4-dihydro-2H-chromen-8-yl]naphthalene-2-sulfonamide]",42 ± 27 nM
3,"COc1ccc(NS(=O)(=O)c2ccccc2-c2ccccc2)c2c1C[C@@H](N(C)C)CO2 [Example 122, N-[(3R)-3-(dimethylamino)-5-methoxy-3,4-dihydro-2H-chromen-8-yl]-1,1′-biphenyl-2-sulfonamide]",2 ± 0.6 nM
4,"COc1ccc(NS(=O)(=O)c2ccc(-c3ccnc(SC)n3)s2)c2c1C[C@@H](N(C)C)CO2 [Example 135, N-[(3R)-3-(dimethylamino)-5-methoxy-3,4-dihydro-2H-chromen-8-yl]-5-[2-(methylthio)pyrimidin-4-yl]thiophene-2-sulfonamide]",49 ± 16 nM
5,"CN(C)[C@H]1CCc2c(cccc2NS(=O)(=O)c2cccc(Br)c2)C1 [Example 170, (2S)-5-{[(3-Bromophenyl)sulfonyl]amino}-N,N-dimethyl-1,2,3,4-tetrahydronaphthalen-2-ammonium Acetate]",74 nM
